Test results taken from patent publication EP0326329B1, “Quinazoline derivatives useful as insecticides” (Dow AgroSciences LLC, priority 1988, dated 1989).

Assays:
Assay type in all cases: in vivo
[1] = tested on: Erysiphe graminis tritici (powdery mildew); experiment: Greenhouse Test 1, foliar spray fungicide screen (POWD MDEW), host wheat; conditions: disease control rating, 400 ppm (+++ at 100 ppm)
[2] = tested on: Pyricularia oryzae (rice blast); conditions: disease control rating, foliar spray, host rice; 400 ppm (+++ at 100 ppm)
[3] = tested on: Puccinia recondita tritici (leaf rust); experiment: Greenhouse Test 1, foliar spray fungicide screen (LEAF RUST), host wheat; conditions: disease control rating, 400 ppm (+++ at 100 ppm)
[4] = tested on: Botrytis cinerea (gray mold); experiment: Greenhouse Test 1, foliar spray fungicide screen (GRAY MOLD), host grape berries; conditions: disease control rating, 400 ppm (+++ at 100 ppm)
[5] = tested on: Pseudoperonospora cubensis (downy mildew); experiment: Greenhouse Test 1, foliar spray fungicide screen (DOWN MDEW), host squash; conditions: disease control rating, 400 ppm (+++ at 100 ppm)
[6] = tested on: Southern corn rootworm (Diabrotica undecimpuctata howardi Barber); experiment: Mite/insect screen, soil treatment (CRW); conditions: Diabrotica, percent mortality, soil treatment, read-out: CRW RESULTS %; for mortality at 12 ppm: CRW rate 12.00 ppm; for mortality at 24 ppm: CRW rate 24.00 ppm
Summary of the method: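 Five 2–3 instar larvae were placed on dry sandy soil with a presoaked corn seed after the soil had received 1 mL of compound solution and dried 6–12 h; cups were kept capped at 23°C. Mortality (%) and phytotoxicity were read after standard exposure. Formulation: acetone/alcohol with emulsifiers, water-diluted.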

[7] = tested on: southern armyworm (Spodopetra eridania Cramer); experiment: Mite/insect screen, sprayed squash leaves (SAW); conditions: Spodoptera eridania, percent mortality, read-out: SAW RESULTS %; for mortality at 200 ppm: spray rate 200 ppm; for mortality at 400 ppm: spray rate 400 ppm
Summary of the method: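 Mortality and phytotoxicity read after standard exposure periods on sprayed squash: cotyledons for melon aphids and twospotted spider mites, excised leaves placed with southern armyworm larvae. Spray solutions were water dilutions of acetone/alcohol stocks containing TOXIMUL R and S emulsifiers, applied to runoff at 10 psi and air-dried one hour.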

[8] = tested on: Twospotted spider mites (Tetranychus urticae Koch); experiment: Mite/insect screen, sprayed squash cotyledons (SM); conditions: Tetranychus urticae, percent mortality, read-out: SM RESULTS %; for mortality at 200 ppm: spray rate 200 ppm; for mortality at 400 ppm: spray rate 400 ppm
Summary of the method: (§1)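 Steps: formulate compound in acetone/alcohol 50:50 carrying emulsifiers; dilute with water; spray leaves until runoff on upper and lower surfaces; air-dry one hour; for armyworm, excise two […] leaves into a dish of larvae; after exposure, score mortality and plant injury.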

[9] = tested on: melon aphids (Aphis gossypii Glover); experiment: Mite/insect screen, sprayed squash cotyledons (MA); conditions: Aphis gossypii, percent mortality, read-out: MA RESULTS %; for mortality at 200 ppm: spray rate 200 ppm; for mortality at 400 ppm: spray rate 400 ppm
Summary of the method: as §1

Row | Compound | POWD MDEW [1] | RICE BLAST [2] | LEAF RUST [3] | GRAY MOLD [4] | DOWN MDEW [5] | mortality at 12 ppm [6] [%] | mortality at 24 ppm [6] [%] | mortality at 200 ppm [7] [%] | mortality at 400 ppm [7] [%] | mortality at 200 ppm [8] [%] | mortality at 400 ppm [8] [%] | mortality at 200 ppm [9] [%] | mortality at 400 ppm [9] [%]
1 | CC(C)(C)c1ccc(CCOc2ncnc3c(F)cccc23)cc1 [Example 94, 8-fluoro-4-[2-[4-(t-butyl)phenyl]ethoxy]quinazoline] | +++ (+++ = 90-100% control at 100 ppm) | +++ (+++ = 90-100% control at 100 ppm) | +++ (+++ = 90-100% control at 100 ppm) | - (- = 0-19% control at 400 ppm) | +++ (+++ = 90-100% control at 100 ppm) | 0 | 0 | 100 | 100 | 100 | 0 | 80 | 0
2 | Fc1cccc2c(OCCc3ccccc3)ncnc12 [Example 95, 8-fluoro-4-(2-phenylethoxy)quinazoline] | +++ (+++ = 90-100% control at 100 ppm) | - (- = 0-19% control at 400 ppm) | +++ (+++ = 90-100% control at 100 ppm) | - (- = 0-19% control at 400 ppm) | +++ (+++ = 90-100% control at 100 ppm) | 0 | 0 | 0 | 0 | 0 | 0 | 80 | 0
3 | CC(C)c1ccc(CCNc2ncnc3c(F)cccc23)cc1 [Example 96, 8-fluoro-N-[2-[4-(i-propyl)phenyl]ethyl]-4-quinazolinamine] | +++ (+++ = 90-100% control at 100 ppm) | +++ (+++ = 90-100% control at 100 ppm) | +++ (+++ = 90-100% control at 100 ppm) | - (- = 0-19% control at 400 ppm) | +++ (+++ = 90-100% control at 100 ppm) | 0 | 0 | 100 | 100 | 50 | 0 | 50 | 0
4 | Cc1cccc(CCOc2ncnc3ccccc23)c1 [Example 97, 4-[2-(3-methylphenyl)ethoxy]quinazoline] | +++ (+++ = 90-100% control at 100 ppm) | ++ (++ = 90-100% control at 400 ppm) | +++ (+++ = 90-100% control at 100 ppm) | - (- = 0-19% control at 400 ppm) | ++ (++ = 90-100% control at 400 ppm) |  | 0 |  | 0 |  | 0 |  | 0
5 | Cc1ccc(CCOc2ncnc3c(F)cccc23)cc1 [Example 99] | +++ (+++ = 90-100% control at 100 ppm) | - (- = 0-19% control at 400 ppm) | +++ (+++ = 90-100% control at 100 ppm) | - (- = 0-19% control at 400 ppm) | +++ (+++ = 90-100% control at 100 ppm) | 0 | 0 | 0 | 0 | 100 | 0 | 100 | 0
6 | CC(C)(C)c1ccc(CCNc2ncnc3c(F)cccc23)cc1 [Example 100, 8-fluoro-N-[2-[4-(t-butyl)phenyl]ethyl]-4-quinazolinamine] | +++ (+++ = 90-100% control at 100 ppm) | +++ (+++ = 90-100% control at 100 ppm) | +++ (+++ = 90-100% control at 100 ppm) | - (- = 0-19% control at 400 ppm) | +++ (+++ = 90-100% control at 100 ppm) | 0 | 100 | 80 | 0 | 80 | 0 | 80 | 0
